The values below come from PubChem BioAssay AID1259407 (Chemical Carcinogenesis Research Information System (CCRIS), 2018).

For the data set, the system named is CCRIS mutagenicity, Ames/micronucleus/aberration tests. Kind of data set: CCRIS mutagenicity studies.
Setting [1] is: Test System: AMES SALMONELLA TYPHIMURIUM, Strain/Indicator: TA98, Metabolic Activation: NONE, Method: PREINCUBATION
[2] abbreviates: Test System: AMES SALMONELLA TYPHIMURIUM, Strain/Indicator: TA98, Metabolic Activation: RAT, LIVER, S-9, AROCLOR 1254 (10%), Method: PREINCUBATION
[3] abbreviates: Test System: AMES SALMONELLA TYPHIMURIUM, Strain/Indicator: TA100, Metabolic Activation: HAMSTER, LIVER, S-9, AROCLOR 1254 (10%), Method: PREINCUBATION
[4] abbreviates: Test System: AMES SALMONELLA TYPHIMURIUM, Strain/Indicator: TA100, Metabolic Activation: NONE, Method: PREINCUBATION
The mark [5] stands for this setting: Test System: AMES SALMONELLA TYPHIMURIUM, Strain/Indicator: TA100, Metabolic Activation: RAT, LIVER, S-9, AROCLOR 1254 (10%), Method: PREINCUBATION
The mark [6] stands for this setting: Test System: AMES SALMONELLA TYPHIMURIUM, Strain/Indicator: TA1535, Metabolic Activation: HAMSTER, LIVER, S-9, AROCLOR 1254 (10%), Method: PREINCUBATION
Where [7] appears, read: Test System: AMES SALMONELLA TYPHIMURIUM, Strain/Indicator: TA1535, Metabolic Activation: NONE, Method: PREINCUBATION
Setting [8] is: Test System: AMES SALMONELLA TYPHIMURIUM, Strain/Indicator: TA1535, Metabolic Activation: RAT, LIVER, S-9, AROCLOR 1254 (10%), Method: PREINCUBATION
Where [9] appears, read: Test System: AMES SALMONELLA TYPHIMURIUM, Strain/Indicator: TA1537, Metabolic Activation: NONE, Method: STANDARD PLATE.
[10] abbreviates: Test System: AMES SALMONELLA TYPHIMURIUM, Strain/Indicator: TA98, Metabolic Activation: NONE, Method: STANDARD PLATE.

Calls of active or inactive are those of the source. The rule behind the calls is not given here.

Take `O=P(OCCCl)(OCCCl)OCCCl`: the mutagenic call reads like this: (End Point: IN VITRO CHROMOSOMAL ABERRATIONS, Test System: CHINESE HAMSTER OVARY CELLS, Metabolic Activation: NONE) “inactive; negative”; (End Point: IN VITRO CHROMOSOMAL ABERRATIONS, Test System: CHINESE HAMSTER OVARY CELLS, Metabolic Activation: RAT, LIVER, S-9, AROCLOR 1254) “inactive; negative”; (Test System: AMES SALMONELLA TYPHIMURIUM, Strain/Indicator: TA98, Metabolic Activation: HAMSTER, LIVER, S-9, AROCLOR 1254 (10%), Method: PREINCUBATION) “inactive; negative”; under setting [1], “inactive; negative”; under setting [2], “inactive; negative”; under setting [3], “inactive; negative”. The mutagenic call is, setting by setting: under setting [4], “inactive; negative”; under setting [5], “inactive; negative”; (Test System: AMES SALMONELLA TYPHIMURIUM, Strain/Indicator: TA100, Metabolic Activation: RAT, LIVER, S-9, PCB, Method: STANDARD PLATE) “active; positive”; under setting [6], “inactive; negative”; under setting [7], “inactive; negative”; under setting [8], “inactive; negative”. Further, the mutagenic call is, setting by setting: (Test System: AMES SALMONELLA TYPHIMURIUM, Strain/Indicator: TA1535, Metabolic Activation: RAT, LIVER, S-9, PCB, Method: STANDARD PLATE) “active; positive”; (Test System: AMES SALMONELLA TYPHIMURIUM, Strain/Indicator: TA1537, Metabolic Activation: HAMSTER, LIVER, S-9, AROCLOR 1254 (10%), Method: PREINCUBATION) “inactive; negative”; (Test System: AMES SALMONELLA TYPHIMURIUM, Strain/Indicator: TA1537, Metabolic Activation: NONE, Method: PREINCUBATION) “inactive; negative”; (Test System: AMES SALMONELLA TYPHIMURIUM, Strain/Indicator: TA1537, Metabolic Activation: RAT, LIVER, S-9, AROCLOR 1254 (10%), Method: PREINCUBATION) “inactive; negative”.

Consider `O.O.O.O.O.O.O=[N+]([O-])[O-].O=[N+]([O-])[O-].O=[N+]([O-])[O-].[La+3]`, for which the mutagenic call is “inactive; negative” (Test System: AMES SALMONELLA TYPHIMURIUM, Strain/Indicator: TA97, Metabolic Activation: HAMSTER, LIVER, S-9, AROCLOR 1254 (10 OR 30%), Method: PREINCUBATION); “inactive; negative” (Test System: AMES SALMONELLA TYPHIMURIUM, Strain/Indicator: TA97, Metabolic Activation: NONE, Method: PREINCUBATION); “inactive; negative” (Test System: AMES SALMONELLA TYPHIMURIUM, Strain/Indicator: TA97, Metabolic Activation: RAT, LIVER, S-9, AROCLOR 1254 (10%), Method: PREINCUBATION); “inactive; negative” (Test System: AMES SALMONELLA TYPHIMURIUM, Strain/Indicator: TA97, Metabolic Activation: RAT, LIVER, S-9, AROCLOR 1254 (30%), Method: PREINCUBATION); “inactive; negative” (Test System: AMES SALMONELLA TYPHIMURIUM, Strain/Indicator: TA98, Metabolic Activation: HAMSTER, LIVER, S-9, AROCLOR 1254 (10 OR 30%), Method: PREINCUBATION); “inactive; negative” under setting [1]. The mutagenic call was “inactive; negative” under setting [2]; “inactive; negative” (Test System: AMES SALMONELLA TYPHIMURIUM, Strain/Indicator: TA98, Metabolic Activation: RAT, LIVER, S-9, AROCLOR 1254 (30%), Method: PREINCUBATION); “inactive; negative” under setting [3]; “inactive; negative” (Test System: AMES SALMONELLA TYPHIMURIUM, Strain/Indicator: TA100, Metabolic Activation: HAMSTER, LIVER, S-9, AROCLOR 1254 (30%), Method: PREINCUBATION); “inactive; negative” under setting [4]; “inactive; negative” under setting [5]. The mutagenic call (Test System: AMES SALMONELLA TYPHIMURIUM, Strain/Indicator: TA100, Metabolic Activation: RAT, LIVER, S-9, AROCLOR 1254 (30%), Method: PREINCUBATION) was “inactive; negative”; the mutagenic call under setting [6] is “inactive; negative”; the mutagenic call (Test System: AMES SALMONELLA TYPHIMURIUM, Strain/Indicator: TA1535, Metabolic Activation: HAMSTER, LIVER, S-9, AROCLOR 1254 (30%), Method: PREINCUBATION) is “inactive; negative”; the mutagenic call under setting [7] is “inactive; negative”; the mutagenic call under setting [8] is “inactive; negative”; the mutagenic call (Test System: AMES SALMONELLA TYPHIMURIUM, Strain/Indicator: TA1535, Metabolic Activation: RAT, LIVER, S-9, AROCLOR 1254 (30%), Method: PREINCUBATION) was “inactive; negative”. For the same molecule, the mutagenic call (Test System: UDS HUMAN LYMPHOCYTES, Strain/Indicator: THYMIDINE INCORPORATION, Metabolic Activation: NONE, Method: LIQUID SCINTILLATION COUNTING) was “active; positive”.

Turning to `O=C(O)c1ccc(O)c2c1C(=O)c1cc(O)cc(O)c1C2=O`, the mutagenic call was “inactive; negative” under setting [9] and “inactive; negative” (Test System: AMES SALMONELLA TYPHIMURIUM, Strain/Indicator: TA1537, Metabolic Activation: RAT, LIVER, S-9, PCB, Method: STANDARD PLATE).

In the case of `O=[N+]([O-])c1ccc2cc3ccccc3cc2c1`, the mutagenic call reads like this: under setting [1], “active; positive”; under setting [10], “active; positive”; under setting [2], “active; positive”; (Test System: AMES SALMONELLA TYPHIMURIUM, Strain/Indicator: TA98, Metabolic Activation: RAT, LIVER, S-9, AROCLOR 1254, Method: STANDARD PLATE) “active; positive”; under setting [4], “active; positive”; under setting [5], “active; positive”.

`[CH3][Sn]([CH3])([CH3])[Cl]`: the mutagenic call was “inactive; negative” (Test System: AMES SALMONELLA TYPHIMURIUM, Strain/Indicator: TA98, Metabolic Activation: NONE, Method: SUSPENSION/PLATE) and “inactive; negative” (Test System: AMES SALMONELLA TYPHIMURIUM, Strain/Indicator: TA100, Metabolic Activation: NONE, Method: SUSPENSION/PLATE).

Take `CCN(CCCl)CCCNc1c2ccccc2nc2ccccc12`: the mutagenic call under setting [10] was “active; positive”; the mutagenic call (Test System: AMES SALMONELLA TYPHIMURIUM, Strain/Indicator: TA100, Metabolic Activation: NONE, Method: STANDARD PLATE) is “active; positive”; the mutagenic call (Test System: AMES SALMONELLA TYPHIMURIUM, Strain/Indicator: TA1535, Metabolic Activation: NONE, Method: STANDARD PLATE) is “inactive; negative”; the mutagenic call (Test System: AMES SALMONELLA TYPHIMURIUM, Strain/Indicator: TA1536, Metabolic Activation: NONE, Method: STANDARD PLATE) is “active; positive”; the mutagenic call under setting [9] was “active; positive”; the mutagenic call (Test System: AMES SALMONELLA TYPHIMURIUM, Strain/Indicator: TA1538, Metabolic Activation: NONE, Method: STANDARD PLATE) is “active; positive”.

Consider `Cc1ccc(NO)cc1C`, for which the mutagenic call runs as follows: under setting [4], “active; positive”; (Test System: AMES SALMONELLA TYPHIMURIUM, Strain/Indicator: TA100, Metabolic Activation: RAT, LIVER, S-9, PCB, Method: PREINCUBATION) “active; positive”.
